# Experimental data reported in PMC12102759 (Protein Science : A Publication of the Protein Society, 2025).
# System: G3BP1 NFT2
# Format: binding, human
# Details: library DMS-CoV; bait G3BP1 NFT2; prey N; peptide RNAPRITFGGPSDSTG; listed as aa = residue placed at this position; column sums to 1
Sequence,"DMS PSSM value, G (position 9)","DMS PSSM value, G (position 10)","DMS PSSM value, G (position 16)","DMS PSSM value, I (position 6)","DMS PSSM value, N (position 2)","DMS PSSM value, P (position 4)","DMS PSSM value, P (position 11)"
RNAPRITFGGPSDSTG G9V (RNAPRITFVGPSDSTG),0,–,–,–,–,–,–
RNAPRITFGGPSDSTG G9W (RNAPRITFWGPSDSTG),0,–,–,–,–,–,–
RNAPRITFGGPSDSTG G9Y (RNAPRITFYGPSDSTG),0,–,–,–,–,–,–
RNAPRITFGGPSDSTG G10A (RNAPRITFGAPSDSTG),–,1,–,–,–,–,–
RNAPRITFGGPSDSTG G10D (RNAPRITFGDPSDSTG),–,0,–,–,–,–,–
RNAPRITFGGPSDSTG G10E (RNAPRITFGEPSDSTG),–,0,–,–,–,–,–
RNAPRITFGGPSDSTG G10F (RNAPRITFGFPSDSTG),–,0,–,–,–,–,–
RNAPRITFGGPSDSTG G10H (RNAPRITFGHPSDSTG),–,0,–,–,–,–,–
RNAPRITFGGPSDSTG G10I (RNAPRITFGIPSDSTG),–,0,–,–,–,–,–
RNAPRITFGGPSDSTG G10K (RNAPRITFGKPSDSTG),–,0,–,–,–,–,–
RNAPRITFGGPSDSTG G10L (RNAPRITFGLPSDSTG),–,0,–,–,–,–,–
RNAPRITFGGPSDSTG G10M (RNAPRITFGMPSDSTG),–,0,–,–,–,–,–
RNAPRITFGGPSDSTG G10N (RNAPRITFGNPSDSTG),–,0,–,–,–,–,–
RNAPRITFGGPSDSTG G10P (RNAPRITFGPPSDSTG),–,0,–,–,–,–,–
RNAPRITFGGPSDSTG G10Q (RNAPRITFGQPSDSTG),–,0,–,–,–,–,–
RNAPRITFGGPSDSTG G10R (RNAPRITFGRPSDSTG),–,0,–,–,–,–,–
RNAPRITFGGPSDSTG G10S (RNAPRITFGSPSDSTG),–,0,–,–,–,–,–
RNAPRITFGGPSDSTG G10T (RNAPRITFGTPSDSTG),–,0,–,–,–,–,–
RNAPRITFGGPSDSTG G10V (RNAPRITFGVPSDSTG),–,0,–,–,–,–,–
RNAPRITFGGPSDSTG G10W (RNAPRITFGWPSDSTG),–,0,–,–,–,–,–
RNAPRITFGGPSDSTG G10Y (RNAPRITFGYPSDSTG),–,0,–,–,–,–,–
RNAPRITFGGPSDSTG G16A (RNAPRITFGGPSDSTA),–,–,0,–,–,–,–

Sequence,"DMS PSSM value, G (position 9)","DMS PSSM value, G (position 10)","DMS PSSM value, G (position 16)","DMS PSSM value, I (position 6)","DMS PSSM value, N (position 2)","DMS PSSM value, P (position 4)","DMS PSSM value, P (position 11)"
RNAPRITFGGPSDSTG G16D (RNAPRITFGGPSDSTD),–,–,0,–,–,–,–
RNAPRITFGGPSDSTG G16E (RNAPRITFGGPSDSTE),–,–,0,–,–,–,–
RNAPRITFGGPSDSTG G16F (RNAPRITFGGPSDSTF),–,–,0,–,–,–,–
RNAPRITFGGPSDSTG G16H (RNAPRITFGGPSDSTH),–,–,0,–,–,–,–
RNAPRITFGGPSDSTG G16I (RNAPRITFGGPSDSTI),–,–,0,–,–,–,–
RNAPRITFGGPSDSTG G16K (RNAPRITFGGPSDSTK),–,–,0,–,–,–,–
RNAPRITFGGPSDSTG G16L (RNAPRITFGGPSDSTL),–,–,0,–,–,–,–
RNAPRITFGGPSDSTG G16M (RNAPRITFGGPSDSTM),–,–,0,–,–,–,–
RNAPRITFGGPSDSTG G16N (RNAPRITFGGPSDSTN),–,–,1,–,–,–,–
RNAPRITFGGPSDSTG G16P (RNAPRITFGGPSDSTP),–,–,0,–,–,–,–
RNAPRITFGGPSDSTG G16Q (RNAPRITFGGPSDSTQ),–,–,0,–,–,–,–
RNAPRITFGGPSDSTG G16R (RNAPRITFGGPSDSTR),–,–,0,–,–,–,–
RNAPRITFGGPSDSTG G16S (RNAPRITFGGPSDSTS),–,–,0,–,–,–,–
RNAPRITFGGPSDSTG G16T (RNAPRITFGGPSDSTT),–,–,0,–,–,–,–
RNAPRITFGGPSDSTG G16V (RNAPRITFGGPSDSTV),–,–,0,–,–,–,–
RNAPRITFGGPSDSTG G16W (RNAPRITFGGPSDSTW),–,–,0,–,–,–,–
RNAPRITFGGPSDSTG G16Y (RNAPRITFGGPSDSTY),–,–,0,–,–,–,–
RNAPRITFGGPSDSTG I6A (RNAPRATFGGPSDSTG),–,–,–,0,–,–,–
RNAPRITFGGPSDSTG I6D (RNAPRDTFGGPSDSTG),–,–,–,0,–,–,–
RNAPRITFGGPSDSTG I6E (RNAPRETFGGPSDSTG),–,–,–,0,–,–,–
RNAPRITFGGPSDSTG I6F (RNAPRFTFGGPSDSTG),–,–,–,0,–,–,–
RNAPRITFGGPSDSTG I6G (RNAPRGTFGGPSDSTG),–,–,–,0,–,–,–

Sequence,"DMS PSSM value, G (position 9)","DMS PSSM value, G (position 10)","DMS PSSM value, G (position 16)","DMS PSSM value, I (position 6)","DMS PSSM value, N (position 2)","DMS PSSM value, P (position 4)","DMS PSSM value, P (position 11)"
RNAPRITFGGPSDSTG I6H (RNAPRHTFGGPSDSTG),–,–,–,0,–,–,–
RNAPRITFGGPSDSTG I6K (RNAPRKTFGGPSDSTG),–,–,–,0,–,–,–
RNAPRITFGGPSDSTG I6L (RNAPRLTFGGPSDSTG),–,–,–,0.232,–,–,–
RNAPRITFGGPSDSTG I6M (RNAPRMTFGGPSDSTG),–,–,–,0,–,–,–
RNAPRITFGGPSDSTG I6N (RNAPRNTFGGPSDSTG),–,–,–,0,–,–,–
RNAPRITFGGPSDSTG I6P (RNAPRPTFGGPSDSTG),–,–,–,0,–,–,–
RNAPRITFGGPSDSTG I6Q (RNAPRQTFGGPSDSTG),–,–,–,0,–,–,–
RNAPRITFGGPSDSTG I6R (RNAPRRTFGGPSDSTG),–,–,–,0,–,–,–
RNAPRITFGGPSDSTG I6S (RNAPRSTFGGPSDSTG),–,–,–,0,–,–,–
RNAPRITFGGPSDSTG I6T (RNAPRTTFGGPSDSTG),–,–,–,0,–,–,–
RNAPRITFGGPSDSTG I6V (RNAPRVTFGGPSDSTG),–,–,–,0.768,–,–,–
RNAPRITFGGPSDSTG I6W (RNAPRWTFGGPSDSTG),–,–,–,0,–,–,–
RNAPRITFGGPSDSTG I6Y (RNAPRYTFGGPSDSTG),–,–,–,0,–,–,–
RNAPRITFGGPSDSTG N2A (RAAPRITFGGPSDSTG),–,–,–,–,0,–,–
RNAPRITFGGPSDSTG N2D (RDAPRITFGGPSDSTG),–,–,–,–,0.4666,–,–
RNAPRITFGGPSDSTG N2E (REAPRITFGGPSDSTG),–,–,–,–,0.4748,–,–
RNAPRITFGGPSDSTG N2F (RFAPRITFGGPSDSTG),–,–,–,–,0,–,–
RNAPRITFGGPSDSTG N2G (RGAPRITFGGPSDSTG),–,–,–,–,0,–,–
RNAPRITFGGPSDSTG N2H (RHAPRITFGGPSDSTG),–,–,–,–,0,–,–
RNAPRITFGGPSDSTG N2I (RIAPRITFGGPSDSTG),–,–,–,–,0,–,–
RNAPRITFGGPSDSTG N2K (RKAPRITFGGPSDSTG),–,–,–,–,0,–,–
RNAPRITFGGPSDSTG N2L (RLAPRITFGGPSDSTG),–,–,–,–,0,–,–

Sequence,"DMS PSSM value, G (position 9)","DMS PSSM value, G (position 10)","DMS PSSM value, G (position 16)","DMS PSSM value, I (position 6)","DMS PSSM value, N (position 2)","DMS PSSM value, P (position 4)","DMS PSSM value, P (position 11)"
RNAPRITFGGPSDSTG N2M (RMAPRITFGGPSDSTG),–,–,–,–,0,–,–
RNAPRITFGGPSDSTG N2P (RPAPRITFGGPSDSTG),–,–,–,–,0,–,–
RNAPRITFGGPSDSTG N2Q (RQAPRITFGGPSDSTG),–,–,–,–,0,–,–
RNAPRITFGGPSDSTG N2R (RRAPRITFGGPSDSTG),–,–,–,–,0,–,–
RNAPRITFGGPSDSTG N2S (RSAPRITFGGPSDSTG),–,–,–,–,0.05861,–,–
RNAPRITFGGPSDSTG N2T (RTAPRITFGGPSDSTG),–,–,–,–,0,–,–
RNAPRITFGGPSDSTG N2V (RVAPRITFGGPSDSTG),–,–,–,–,0,–,–
RNAPRITFGGPSDSTG N2W (RWAPRITFGGPSDSTG),–,–,–,–,0,–,–
RNAPRITFGGPSDSTG N2Y (RYAPRITFGGPSDSTG),–,–,–,–,0,–,–
RNAPRITFGGPSDSTG P4A (RNAARITFGGPSDSTG),–,–,–,–,–,0,–
RNAPRITFGGPSDSTG P4D (RNADRITFGGPSDSTG),–,–,–,–,–,0,–
RNAPRITFGGPSDSTG P4E (RNAERITFGGPSDSTG),–,–,–,–,–,0.9115,–
RNAPRITFGGPSDSTG P4F (RNAFRITFGGPSDSTG),–,–,–,–,–,0,–
RNAPRITFGGPSDSTG P4G (RNAGRITFGGPSDSTG),–,–,–,–,–,0,–
RNAPRITFGGPSDSTG P4H (RNAHRITFGGPSDSTG),–,–,–,–,–,0,–
RNAPRITFGGPSDSTG P4I (RNAIRITFGGPSDSTG),–,–,–,–,–,0,–
RNAPRITFGGPSDSTG P4K (RNAKRITFGGPSDSTG),–,–,–,–,–,0,–
RNAPRITFGGPSDSTG P4L (RNALRITFGGPSDSTG),–,–,–,–,–,0,–
RNAPRITFGGPSDSTG P4M (RNAMRITFGGPSDSTG),–,–,–,–,–,0,–
RNAPRITFGGPSDSTG P4N (RNANRITFGGPSDSTG),–,–,–,–,–,0,–
RNAPRITFGGPSDSTG P4Q (RNAQRITFGGPSDSTG),–,–,–,–,–,0.08846,–
RNAPRITFGGPSDSTG P4R (RNARRITFGGPSDSTG),–,–,–,–,–,0,–

Sequence,"DMS PSSM value, G (position 9)","DMS PSSM value, G (position 10)","DMS PSSM value, G (position 16)","DMS PSSM value, I (position 6)","DMS PSSM value, N (position 2)","DMS PSSM value, P (position 4)","DMS PSSM value, P (position 11)"
RNAPRITFGGPSDSTG P4S (RNASRITFGGPSDSTG),–,–,–,–,–,0,–
RNAPRITFGGPSDSTG P4T (RNATRITFGGPSDSTG),–,–,–,–,–,0,–
RNAPRITFGGPSDSTG P4V (RNAVRITFGGPSDSTG),–,–,–,–,–,0,–
RNAPRITFGGPSDSTG P4W (RNAWRITFGGPSDSTG),–,–,–,–,–,0,–
RNAPRITFGGPSDSTG P4Y (RNAYRITFGGPSDSTG),–,–,–,–,–,0,–
RNAPRITFGGPSDSTG P11A (RNAPRITFGGASDSTG),–,–,–,–,–,–,0
RNAPRITFGGPSDSTG P11D (RNAPRITFGGDSDSTG),–,–,–,–,–,–,0
RNAPRITFGGPSDSTG P11E (RNAPRITFGGESDSTG),–,–,–,–,–,–,0
RNAPRITFGGPSDSTG P11F (RNAPRITFGGFSDSTG),–,–,–,–,–,–,0
RNAPRITFGGPSDSTG P11G (RNAPRITFGGGSDSTG),–,–,–,–,–,–,0
RNAPRITFGGPSDSTG P11H (RNAPRITFGGHSDSTG),–,–,–,–,–,–,0
RNAPRITFGGPSDSTG P11I (RNAPRITFGGISDSTG),–,–,–,–,–,–,0
RNAPRITFGGPSDSTG P11K (RNAPRITFGGKSDSTG),–,–,–,–,–,–,0
RNAPRITFGGPSDSTG P11L (RNAPRITFGGLSDSTG),–,–,–,–,–,–,0
RNAPRITFGGPSDSTG P11M (RNAPRITFGGMSDSTG),–,–,–,–,–,–,0
RNAPRITFGGPSDSTG P11N (RNAPRITFGGNSDSTG),–,–,–,–,–,–,0
RNAPRITFGGPSDSTG P11Q (RNAPRITFGGQSDSTG),–,–,–,–,–,–,0
RNAPRITFGGPSDSTG P11R (RNAPRITFGGRSDSTG),–,–,–,–,–,–,0
